This note sets out measurements from ChEMBL document CHEMBL1143961, “Synthesis and antiplatelet activity of ethyl 4-(1-benzyl-1H-indazol-3-yl)benzoate (YD-3) derivatives” (Bioorg Med Chem, 2008).

Assay [1] concerns Platelet. Nature of the assay: Inhibition of U46619-induced human platelet aggregation. The assay is classed as functional, cell-based.
Assay [2] deals with Platelet. Nature of the assay: Inhibition of collagen-induced human platelet aggregation. The assay is classed as functional, cell-based.
The test system of assay [3] is Platelet. Nature of the assay: Inhibition of thrombin-induced human platelet aggregation. The assay is classed as functional, cell-based.
Assay [4] deals with Platelet. Kind of assay: Inhibition of SFLLRN-induced human platelet aggregation. The assay is classed as functional, cell-based.
Assay [5] relates to Platelet. Nature of the assay: Inhibition of GYPGKF-induced human platelet aggregation. Type of assay: functional, cell-based.
The target in assay [6] is T1, Proteinase-activated receptor 4 (Homo sapiens) (UniProt Q96RI0).
T1 sequence (whole entry): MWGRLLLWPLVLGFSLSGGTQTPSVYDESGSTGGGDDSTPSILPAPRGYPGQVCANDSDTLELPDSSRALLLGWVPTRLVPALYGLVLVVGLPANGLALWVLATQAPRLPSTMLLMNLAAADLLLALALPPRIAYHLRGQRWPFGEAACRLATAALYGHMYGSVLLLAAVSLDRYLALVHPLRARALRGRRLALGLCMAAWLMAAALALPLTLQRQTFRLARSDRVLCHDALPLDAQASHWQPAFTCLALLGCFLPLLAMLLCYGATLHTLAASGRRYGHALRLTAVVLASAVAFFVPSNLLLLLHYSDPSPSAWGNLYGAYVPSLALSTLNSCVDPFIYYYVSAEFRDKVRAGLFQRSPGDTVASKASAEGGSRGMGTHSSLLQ
Nature of the assay: Inhibition of PAR4-mediated GYPGKF-induced ATP release in human platelet assessed per 3*10^8 platelets at 0.1 uM.

In assay [7] the target is T1, Proteinase-activated receptor 4 (Homo sapiens). Nature of the assay: Inhibition of PAR4-mediated GYPGKF-induced P-selectin expression in human platelet at 0.1 uM.
Assay [8] shares this target. Nature of the assay: Inhibition of PAR4-mediated GYPGKF-induced P-selectin expression in human platelet at 0.05 uM.
Assay [9] deals with Platelet. Nature of the assay: Inhibition of arachidonic acid-stimulated thromboxane B2 formation in human platelet assessed per 3*10^8 platelets at 5 uM. The assay is classed as functional.
The target of assay [10] is T1, Proteinase-activated receptor 4 (Homo sapiens). Nature of the assay: Inhibition of PAR4-mediated GYPGKF-induced ATP release in human platelet assessed per 3*10^8 platelets at 0.2 uM.

Take `CNC(=O)c1ccc(-c2nn(Cc3ccccc3)c3ccccc23)cc1`: the IC50 in assay [1], in assay [2], in assay [3], in [4] and in [5] was over 10 µM each time.

Take `CCOC(=O)c1ccc(-c2nn(Cc3ccccc3)c3ccccc23)cc1`: the Activity in assay [6] worked out at 74.4 ng; in [9], 1408.3 ng; in assay [10], 12.7 ng. Besides, the results for the inhibition in assay [7] and in [8] were 7.7% and 67.2%, respectively. For the same molecule, the IC50 (commonly the concentration that inhibits the measured activity by half) is over 10 µM in [1]; over 10 µM in [2]; over 10 µM in [3]; over 10 µM in assay [4]; 0.13 µM in assay [5].

`CCOC(=O)c1ccc(-c2nn(Cc3cccc(Cl)c3)c3ccccc23)cc1`: the Activity in assay [6] came out at 58.9 ng; in assay [9], 1368.4 ng; in assay [10] it was 8.9 ng. The inhibition (in general, the share of the control response that was lost under treatment) turned out to be 5.2% in [7] and 39.3% in assay [8]. Also, the IC50 in assay [1] was over 10 µM; in assay [2], over 10 µM; in assay [3], over 10 µM; in assay [4], over 10 µM; in assay [5], 0.08 µM.

`O=C(O)c1ccc(-c2nn(Cc3ccccc3)c3ccccc23)cc1`: the IC50 in assay [1], in assay [2], in assay [3], in assay [4] and in assay [5] was over 10 µM throughout.

Consider `CCOC(=O)c1ccc(-c2nn(Cc3cccc(OC)c3)c3ccccc23)cc1`, for which the IC50 in [1] is over 10 µM; in assay [2], over 10 µM; in [3] it was over 10 µM; in assay [4], over 10 µM; in assay [5] it was 0.26 µM.

Turning to `CCOC(=O)c1ccc(-c2nn(Cc3ccccc3F)c3ccccc23)cc1`, the IC50 in assay [1] was over 10 µM; in assay [2], over 10 µM; in assay [3], over 10 µM; in [4] it was over 10 µM; in [5] it was 0.11 µM.

For `CCOC(=O)c1ccc(-c2nn(Cc3ccccc3OC)c3ccccc23)cc1`, the IC50 was over 10 µM in assay [1]; over 10 µM in [2]; over 10 µM in assay [3]; over 10 µM in assay [4]; 0.47 µM in assay [5].

As to `CCOC(=O)c1ccc(-c2nn(Cc3ccc(OC)cc3)c3ccccc23)cc1`, the IC50 is over 10 µM in assay [1]; over 10 µM in assay [2]; over 10 µM in assay [3]; over 10 µM in assay [4]; 0.62 µM in assay [5].

As to `CCNC(=O)c1ccc(-c2nn(Cc3ccccc3)c3ccccc23)cc1`, the IC50 in assay [1] is over 10 µM; in [2] it was over 10 µM; in [3], over 10 µM; in assay [4], over 10 µM; in [5], 5.64 µM.

For `CCOC(=O)c1ccc(-c2nn(Cc3ccoc3)c3ccccc23)cc1`, the IC50 was over 10 µM in assay [1]; over 10 µM in assay [2]; over 10 µM in [3]; over 10 µM in assay [4]; 0.58 µM in assay [5].

Turning to `CCOC(=O)c1ccc(-c2nn(CC)c3ccccc23)cc1`, the IC50 in [1] was over 10 µM; in assay [2] it was over 10 µM; in assay [3] it was over 10 µM; in assay [4], over 10 µM; in assay [5] it was 0.36 µM.

For `CCOC(=O)c1ccc(-c2nn(C(C)C)c3ccccc23)cc1`, the IC50 in [1] was over 10 µM; in [2], over 10 µM; in [3] it was over 10 µM; in assay [4], over 10 µM; in assay [5], 0.65 µM.

Turning to `NC(=O)c1ccc(-c2nn(Cc3ccccc3)c3ccccc23)cc1`, the IC50 in assay [1], in assay [2], in [3], in [4] and in assay [5] was over 10 µM in each case.

`CCOC(=O)/C=C/c1ccc(-c2nn(Cc3ccccc3)c3ccccc23)cc1`: the IC50 in assay [1], in assay [2], in [3], in assay [4] and in assay [5] was over 10 µM throughout.

`CCOC(=O)c1ccc(-c2nn(Cc3ccc(Cl)cc3)c3ccccc23)cc1`: the IC50 was over 10 µM in assay [1]; over 10 µM in [2]; over 10 µM in assay [3]; over 10 µM in assay [4]; 0.12 µM in [5].

`CCOC(=O)c1ccc(-c2nn(Cc3ccncc3)c3ccccc23)cc1`: the IC50 in [1] is over 10 µM; in [2] it was over 10 µM; in assay [3] it was over 10 µM; in [4], over 10 µM; in [5], 5.63 µM.

Turning to `CC(C)NC(=O)c1ccc(-c2nn(Cc3ccccc3)c3ccccc23)cc1`, the half-maximal inhibitory concentration (IC50) in [1], in assay [2], in assay [3], in [4] and in assay [5] was over 10 µM in each case.

For `CCOC(=O)c1ccc(-c2nn(Cc3cccnc3)c3ccccc23)cc1`, the IC50 in assay [1] was over 10 µM; in assay [2], over 10 µM; in [3] it was over 10 µM; in assay [4] it was over 10 µM; in assay [5] it was 5.55 µM.

For the molecule `CCOC(=O)c1ccc(-c2nn(Cc3ccc(F)cc3)c3ccccc23)cc1`, the IC50 is over 10 µM in [1]; over 10 µM in assay [2]; over 10 µM in assay [3]; over 10 µM in [4]; 0.19 µM in [5].

Regarding `COC(=O)c1ccc(-c2nn(Cc3ccccc3)c3ccccc23)cc1`, the IC50 was over 10 µM in assay [1]; over 10 µM in assay [2]; over 10 µM in assay [3]; over 10 µM in [4]; 0.56 µM in assay [5].

In the case of `CCOC(=O)c1ccc(-c2nn(C)c3ccccc23)cc1`, the concentration for half-maximal inhibition (IC50) in assay [1] was over 10 µM; in assay [2], over 10 µM; in [3], over 10 µM; in [4] it was over 10 µM; in assay [5] it was 0.27 µM.

Take `CCOC(=O)c1ccc(-c2nn(Cc3ccco3)c3ccccc23)cc1`: the IC50 is over 10 µM in assay [1]; over 10 µM in [2]; over 10 µM in assay [3]; over 10 µM in [4]; 0.34 µM in assay [5].

As to `CCCn1nc(-c2ccc(C(=O)OCC)cc2)c2ccccc21`, the IC50 is over 10 µM in assay [1]; over 10 µM in assay [2]; over 10 µM in assay [3]; over 10 µM in assay [4]; 0.49 µM in assay [5].

Turning to `CCOC(=O)c1cccc(-c2nn(Cc3ccccc3)c3ccccc23)c1`, the half-inhibitory concentration (IC50) in [1], in [2], in assay [3], in assay [4] and in [5] was over 10 µM each time.

For `CO/N=C\c1ccc(-c2nn(Cc3ccccc3)c3ccccc23)cc1`, the IC50 in [1], in assay [2], in [3], in [4] and in assay [5] was over 10 µM in each case.

For `CCOC(=O)c1ccc(-c2c3ccccc3nn2Cc2ccccc2)cc1`, the IC50 in assay [1], in assay [2], in [3], in assay [4] and in assay [5] was over 10 µM in each case.

For `CCCNC(=O)c1ccc(-c2nn(Cc3ccccc3)c3ccccc23)cc1`, the IC50 is over 10 µM in assay [1]; 9.56 µM in assay [2]; over 10 µM in assay [3]; over 10 µM in assay [4]; over 10 µM in [5].

Turning to `OCc1ccc(-c2nn(Cc3ccccc3)c3ccccc23)cc1`, the IC50 in assay [1], in assay [2], in [3], in [4] and in assay [5] was over 10 µM throughout.

As for `CCOC(=O)c1ccc(-c2nn(Cc3cccc(F)c3)c3ccccc23)cc1`, the IC50 in [1] is over 10 µM; in [2] it was over 10 µM; in [3] it was over 10 µM; in assay [4], over 10 µM; in assay [5], 0.27 µM.

For the molecule `CCCOC(=O)c1ccc(-c2nn(Cc3ccccc3)c3ccccc23)cc1`, the half-inhibitory concentration (IC50) in [1], in assay [2], in assay [3], in assay [4] and in assay [5] was over 10 µM each time.

Take `CCCCn1nc(-c2ccc(C(=O)OCC)cc2)c2ccccc21`: the IC50 in assay [1] is over 10 µM; in assay [2], over 10 µM; in assay [3] it was over 10 µM; in assay [4] it was over 10 µM; in [5], 0.67 µM.

With `CCOC(=O)c1ccc(-c2nn(Cc3ccccc3Cl)c3ccccc23)cc1`, the IC50 is over 10 µM in assay [1]; over 10 µM in [2]; over 10 µM in assay [3]; over 10 µM in [4]; 0.23 µM in [5].

As to `CC(C)OC(=O)c1ccc(-c2nn(Cc3ccccc3)c3ccccc23)cc1`, the IC50 in assay [1], in assay [2], in assay [3], in assay [4] and in [5] was over 10 µM in each case.
